According to patent EP0415999B1, “COMPOSITIONS HAVING USE AS TREATMENT OF PSORIASIS AND NEUROP[…]” (THE UNITED STATES OF AMERICA as represented by the …, priority 1988, dated 1998):

Tested on: volunteers who tested negative or HIV antibodies
Assay: Overall neuropsychologic and clinical observations during seven-day peptide administration
Type: in vivo, human
Protocol: As indicated in the Table, symptoms of substance abuse, childhood dyslexia and depression were ameliorated. The peptide having the formula: [formula] was given at dosage of 0.033 mg/kg/da to 0.133 mg/kg/da for seven days. As indicated in the Table, the unexpected effects observed in these volunteers who tested negative or HIV antibodies were the following: • 1. […] This effect maintained for one month of follow-up.

C[C@@H](N)C(=O)N[C@@H](CO)C(=O)N[C@H](C(=O)N[C@H](C(=O)N[C@H](C(=O)N[C@@H](CC(N)=O)C(=O)N[C@@H](Cc1ccc(O)cc1)C(=O)N[C@H](C(N)=O)[C@@H](C)O)[C@@H](C)O)[C@@H](C)O)[C@@H](C)O [Peptide T]
scores on memory and attention components of standard neuropsychologic tests (0.033 mg/kg/da to 0.133 mg/kg/da for seven days, remitted after Peptide T was discontinued): Incremental scores
physical activity (all subjects, while on drug, did not continue after drug discontinuance): increases in physical activity
fatigue, energy and vigor (reported by subjects) (all subjects, effect abated off drug): decreased fatigue and increased energy and vigor
mood scores on depression scales (two research volunteers with prior histories of depression, effect maintained for one month of follow-up): Improved mood scores
